Source: US6245801A, “Branched alkyl pyrrolidine-3-carboxylic acids” (Warner-Lambert Company, priority 2000, dated 2001)

What was measured:
NA Release = assay: NA Release, % inhibition; conditions: @ 100 μM
DBA/2 mice = assay: DBA2 mouse model of anticonvulsant efficacy (sound-induced seizures); format: in vivo, mouse (male DBA/2); conditions: time not printed
Method: DBA2 Mouse Model of Anticonvulsant Efficacy
All procedures were carried out in compliance with the NIH Guide for the Care and Use of Laboratory Animals under a protocol approved by the Parke-Davis Animal Use Committee. Male DBA/2 mice, 3 to 4 weeks old were obtained from Jackson Laboratories Bar Harbour, Me. Immediately before anticonvulsant testing, mice were placed upon a wire mesh, 4 inches square, suspended from a steel rod. The square was slowly inverted through 180° and mice observed for 30 seconds. Any mouse falling from the wire mesh was scored as ataxic (Coughenour L. L., McLean J. R., Parker R. B., "A new device for the rapid measurement of impaired motor function in mice," Pharm. Biochem. Behav., 1977;6(3):351-3). Mice were placed into an enclosed acrylic plastic chamber (21 cm height, approximately 30 cm diameter) with a high-frequency speaker (4 cm diameter) in the center of the top lid. An audio signal generator (Protek model B-810) was used to produce a continuous sinusoidal tone that was swept linearly in frequency between 8 kHz and 16 kHz once each 10 msec. The average sound pressure level (SPL) during stimulation was approximately 100 dB at the floor of the chamber. Mice were placed within the chamber and allowed to acclimatize for one minute. DBA/2 mice in the vehicle-treated group responded to the sound stimulus (applied until tonic extension occurred, or for a maximum of 60 sec) with a characteristic seizure sequence consisting of wild running followed by clonic seizures, and later by tonic extension, and finally by respiratory arrest and death in 80% or more of the mice. In vehicle-treated mice, the entire sequence of seizures to respiratory arrest lasts approximately 15 to 20 seconds. The incidence of all the seizure phases in the drug-treated and vehicle-treated mice was recorded, and the occurrence of tonic seizures were used for calculating anticonvulsant ED50 values by probit analysis (Litchfield J. T., Wilcoxon F. "A simplified method for evaluating dose-effect experiments," J. Pharmacol., 1949;96:99-113). Mice were used only once for testing at each dose point. Groups of DBA/2 mice (n=5-10 per dose) were tested for sound-induced seizure responses 2 hours (previously determined time of peak effect) after given drug orally. All drugs in the present study were dissolved in distilled water and given by oral gavage in a volume of 10 mL/kg of body weight. Compounds that are insoluble will be suspended in 1% carboxymethocellulose. Doses are expressed as weight of the active drug moiety.

Vogel = assay: Vogel; format: in vivo; conditions: relative to C1-1008
[1] = target: T1, α2δ subunit of a calcium channel (Sus scrofa, UniProt A0A287BIN3); assay: [3H]gabapentin (GAP) radioligand binding assay, α2δ subunit; parameters: species or system porcine (brain tissue)
T1 construct: α2δ subunit derived from porcine brain tissue; from tissue; host or cells: porcine brain tissue
T1 sequence (A0A287BIN3 entry or part of it): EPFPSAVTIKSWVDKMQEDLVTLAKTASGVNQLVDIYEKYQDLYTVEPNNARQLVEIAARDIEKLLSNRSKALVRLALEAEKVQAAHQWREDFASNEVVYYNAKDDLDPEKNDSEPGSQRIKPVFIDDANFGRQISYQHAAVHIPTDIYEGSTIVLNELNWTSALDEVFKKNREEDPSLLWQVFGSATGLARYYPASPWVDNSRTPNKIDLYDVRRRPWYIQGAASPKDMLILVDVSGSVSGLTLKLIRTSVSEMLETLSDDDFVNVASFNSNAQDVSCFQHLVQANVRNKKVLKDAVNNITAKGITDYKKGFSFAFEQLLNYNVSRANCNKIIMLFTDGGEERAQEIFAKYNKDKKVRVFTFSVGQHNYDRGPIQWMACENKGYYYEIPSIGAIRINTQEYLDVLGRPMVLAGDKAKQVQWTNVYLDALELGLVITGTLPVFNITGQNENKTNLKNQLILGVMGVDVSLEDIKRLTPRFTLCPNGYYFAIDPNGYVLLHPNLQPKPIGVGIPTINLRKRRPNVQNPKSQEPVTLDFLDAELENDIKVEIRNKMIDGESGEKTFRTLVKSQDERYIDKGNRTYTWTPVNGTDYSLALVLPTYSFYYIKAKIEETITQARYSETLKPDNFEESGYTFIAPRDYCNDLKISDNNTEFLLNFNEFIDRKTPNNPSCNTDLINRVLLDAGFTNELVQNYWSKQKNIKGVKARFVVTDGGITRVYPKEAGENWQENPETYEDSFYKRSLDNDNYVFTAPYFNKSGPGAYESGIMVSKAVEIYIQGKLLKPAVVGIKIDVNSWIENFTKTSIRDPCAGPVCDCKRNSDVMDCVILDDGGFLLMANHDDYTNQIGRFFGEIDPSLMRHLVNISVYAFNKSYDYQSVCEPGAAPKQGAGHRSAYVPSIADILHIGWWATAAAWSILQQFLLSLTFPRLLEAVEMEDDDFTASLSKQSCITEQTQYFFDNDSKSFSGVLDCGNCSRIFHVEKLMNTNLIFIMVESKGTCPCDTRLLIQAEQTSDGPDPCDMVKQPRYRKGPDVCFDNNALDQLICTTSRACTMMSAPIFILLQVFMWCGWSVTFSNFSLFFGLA

[2] = tested on: carrageenin-induced hyperalgesia; assay: CITH / carrageenin-induced hyperalgesia; format: in vivo, rat (male Sprague-Dawley); conditions: for CITH % MPE 1 h / CITH % MPE 2 h: Table I; for percent of maximum possible effect (MPE): 30 mg/kg orally
Method: Carrageenin-Induced Hyperalgesia
Nociceptive pressure thresholds were measured in the rat paw pressure test using an analgesymeter (Randall-Selitto method: Randall L. O. and Selitto J. J., "A method for measurement of analgesic activity on inflamed tissue," Arch. Int. Pharmacodyn., 1957;4:409-419). Male Sprague-Dawley rats (70-90 g) were trained on this apparatus before the test day. Pressure was gradually applied to the hind paw of each rat and nociceptive thresholds were determined as the pressure (g) required to elicit paw withdrawal. A cutoff point of 250 g was used to prevent any tissue damage to the paw. On the test day, two to three baseline measurements were taken before animals were administered 100 μL of 2% carrageenin by intraplantar injection into the right hind paw. […] Animals were dosed with either gabapentin ([…].), morphine (3 mg/kg, s.c.) or saline at 3.5 hours after carageenin and nociceptive thresholds were examined at 4, 4.5, and 5 hours postcarrageenin.
(R)-2-Aza-spiro[4.5]decane-4-carboxylic acid hydrochloride was tested in the above carrageenan-induced hyperalgesia model. The compound was dosed orally at 30 mg/kg, and 1 hour postdose gave a percent of maximum possible effect (MPE) of 53%. At 2 hours postdose, it gave only 4.6% of MPE.

Sys L = assay: Sys L; conditions: Table I

Row | Compound | DBA 2 % Protect (time) (DBA/2 mice; first value of the column) [%] | DBA 2 % Protect (time) (DBA/2 mice; second value of the column) [%] | Vogel % of C1-1008 (Vogel) | IC50 [1] [nM] | CITH % MPE 1 h [2] [% MPE] | CITH % MPE 2 h [2] [% MPE] | further results
1 | CC(C)C[C@H]1CNC[C@@H]1C(=O)O | 20 | 40 | 0.63 % of C1-1008 | – | – | – | NA Release % Inhibition (NA Release): 16%
2 | CC(C)C[C@@H]1CNC[C@H]1C(=O)O | – | – | -0.63 % of C1-1008 | – | – | – | NA Release % Inhibition (NA Release): 8%
3 | CC1(C)CNCC1C(=O)O (racemic) | – | – | – | 1190 | – | – | –
4 | C[C@H]1CNC[C@@H]1C(=O)O (relative stereo) | – | – | – | 3100 | – | – | –
5 | CC(C)[C@H]1CNC[C@@H]1C(=O)O (relative stereo) | – | – | – | 543 | – | – | –
6 | CCC[C@H]1CNC[C@@H]1C(=O)O (relative stereo) | – | – | – | 30 | – | – | –
7 | CCCC[C@H]1CNC[C@@H]1C(=O)O (relative stereo) | – | – | – | 64 | – | – | –
8 | CC(C)C[C@H]1CNC[C@@H]1C(=O)O (stereo in doubt) | 0 | 0 | – | – | 3 | -15 | –
9 | CC(C)C[C@@H]1CNC[C@@H]1C(=O)O (stereo in doubt) | 0 | 0 | – | 700 | 23 | 3.3 | –
10 | CC(C)C[C@H]1CNC[C@H]1C(=O)O (stereo in doubt) [Example 1, (cis)-4-Isobutyl-pyrrolidine-3-carboxylic acid] | – | – | – | 135 | – | – | –
11 | Cl.O=C(O)[C@H]1CNCC12CCCCC2 [(R)-2-Aza-spiro[4.5]decane-4-carboxylic acid hydrochloride] | 20 | 20 | – | 120 | 53 | 4.6 | IC50 (Sys L): > 10000 µM; percent of maximum possible effect (MPE) ([2]; 1 hour postdose): 53%; percent of maximum possible effect (MPE) ([2]; 2 hours postdose): 4.6%
12 | NCC1(CC(=O)O)CCCCC1 [reference compound] | 100 | – | 63.7 % of C1-1008 | – | 48.9 | 19.9 | IC50 (Sys L): 25 µM
13 | CC(C)C[C@H](CN)CC(=O)O [reference compound] | 100 | 100 | 100 % of C1-1008 | 87 | 52.5 | 50.1 | IC50 (Sys L): 193 µM
